Read-outs that look alike come from different tables or passages of the source.

The LD50 is the dose expected to kill half of the subjects tested.

The subject of data set [1] is carbon tetrachloride (CCl4) induced liver damage. Kind of data set: Effect on carbon tetrachloride (CCl4) induced liver damage (liver cell necrosis type). Conditions: for inhibition in vivo at 0.02 mg/kg: Rattus norvegicus, sc, 24 h, s.c., 20 μg/kg. The class given is in vivo, Male Wistar rats. As to the method:
Effect on carbon tetrachloride (CCl4) induced liver damage (liver cell necrosis type)
Male Wistar rats weighing 180-220 g were used. Rats were dosed intraperitoneally with CCl4 dissolved in olive oil (5%, w/v) at a volume of 500 μl/kg after 18 hr starvation. The compound under test was administered orally (p.o.) or subcutaneously (s.c.) 6 and 12 hr after CCl4 injection in rats and blood was collected after 24 hr. Plasma glutamic oxaloacetic transaminase (GOT) and glutamic pyruvic transaminase (GPT) activities were determined by ultraviolet absorbance methods (optimised method based on the recommendations of the Deutsche Gesellschaft fur Klinische Chemie). The effects of the compounds tested were assessed by the inhibition rate in comparison with controls. Inhibition rate was calculated by the following formula. [formula] The results obtained are shown in the following Tables 1A and 1B for compounds of the general formula: [drawing 10] wherein R, R^1 and --X--Y--Z-- have the meanings indicated.
In Tables 1A, 1B and 2 to 5 hereinafter the dose shown in the amount given at each administration of the compound under test.

The test system of data set [2] is alcohol-induced acute liver damage. Kind of data set: Effect on alcohol-induced acute liver damage. The class given is in vivo, Male Wistar rats. Conditions: p.o., 50 μg/kg; blood after 24 hr. As to the method:
Effect on alcohol-induced acute liver damage
Male Wistar rats weighing 180-220 g were used. After the rats had fasted for 18 hr, 50% v/v ethanol solution was given orally to them at a volume of 12 ml/kg. The compound under test was administered orally 30 min before and 2 and 8 hr after administration of ethanol and blood was collected after 24 hr. Plasma GOT and GPT activities were determined in the manner described in Experiment 1. Effects were shown by the inhibition rate compared with controls (calculation by the formula shown in Experiment 1).

Data set [3] deals with D(+)-galactosamine hydrochloride-induced liver damage. The data set can be described thus: Effect on D(+)-galactosamine hydrochloride-induced liver damage (hepatitis type). The class given is in vivo, Male Wistar rats. Conditions: p.o., 100 μg/kg. The procedure:
Effect on D(+)-galactosamine hydrochloride-induced liver damage (hepatitis type)
Male Wistar rats weighing 180-220 g were used. After the rats had fasted for 18 hr, 250 mg/kg galactosamine hydrochloride was administered to them intraperitoneally three times at 4 hr intervals. The compound under test was administered orally 6, 12, 18, 24, 30, 36, 42 and 48 hr after the dose of D(+)-galactosamine hydrochloride and blood was collected after 36, 48 and 54 hr. Plasma GOT and GPT activities were determined in the manner described in Experiment 1 and the effects were shown by the inhibition rate compared with controls (calculation by the formula shown in Experiment 1).

Data set [4] relates to p-acetoamidophenol-induced liver damage. The data set can be described thus: Effect on p-acetoamidophenol-induced liver damage (liver glutathione decrease type). Format: in vivo, Male Wistar rats. Conditions: p.o., 50 μg/kg; blood after 24 hr. The procedure:
Effect on p-acetoamidophenol-induced liver damage (liver glutathione decrease type)
Male Wistar rats weighing 180-220 g were used. After the rats had fasted for 18 hr, p-acetoamidophenol (2.5 g/kg) was given orally to them. The compound under test was administered orally 30 min before and 6 and 12 hr after administration of p-acetoamidophenol and blood was collected after 24 hr. Plasma GOT and GPT activities were determined in the manner described in experiment 1 and the results given in Table 4 show the inhibition rate compared with controls (calculation by the formula shown in Experiment 1)

Data set [5] deals with α-naphthylisothiocyanate-induced liver damage. Kind of data set: Effect on α-naphthylisothiocyanate-induced liver damage (cholangioatresia type). Format: in vivo, Male Wistar rats. Conditions: p.o., blood after 24 hr. As to the method:
Effect on α-naphthylisothiocyanate-induced liver damage (cholangioatresia type)
Male Wistar rats weighing 190-220 g were used. After rats had fasted for 18 hr, α-naphthylisothiocyanate (ANIT) dissolved in olive oil (1.5% w/v) was given orally to them at 30 mg/kg body weight. The compound under test was administered orally 30 min before and 6 and 12 hr after administration of ANIT and blood was collected after 24 hr. Plasma GOT, GPT and bilirubin activities were determined and the results given in Table 5 show the inhibition rate compared with controls (calculation by the formula shown in Experiment 1).

The subject of data set [6] is ethionine-induced acute pancreatitis. The data set can be described thus: Effect on ethionine-induced acute pancreatitis. The class given is in vivo, Male TCL-ICR mice. Conditions: s.c., 5 μg/kg. The procedure: Effect on ethionine-induced acute pancreatitis
Male TCL-ICR mice from 4 weeks of age were used. After normal feeding the mice were given a choline-deficient diet (CD diet) for 2 days. Further after having fasted for 24 hr, they were given a choline-deficient diet containing 5% DL-ethionine (CDE diet) for 2 days, counted as days 1 and 2. The mice were then given the CD diet for 1 day and thereafter fed normally. Compound number 6 was administered subcutaneously to them at 5 μg/kg, twice daily, during the CDE diet on days 1 and 2, and then administered in the same manner once daily on days 3, 4 and 5. The effect of the compound under test on the survival rate at day 9 was determined. Further details of the test method appear in Gastroenterology, 78, 777 (1980).

Data set [7] can be described thus: Acute toxicity test. Conditions: mouse, in vivo; oral, mice observed for 14 days. The procedure: Male JCL-ICR mice (non SPF mice) from 7 weeks of age were used. The compound under test was dissolved in 5% v/v ethanol containing 0.4% w/v Tween 80 (Tween is a registered trademark) and administered orally to the mice. […] The deaths observed were all within 72 hrs after treatment.

The test system of data set [8] is acute galactosamine-induced liver damage. Conditions: Stachur et al; cited from earlier work.
Data set [9] concerns carbon tetrachloride-induced liver cell necrosis. Conditions: Stachur et al; cited from earlier work.
For data set [10], the system named is blood platelet aggregation. Conditions: cited from earlier work.
Data set [11] relates to thrombus. Conditions: cited from earlier work.
For data set [12], the system named is diet-induced acute pancreatitis. Conditions: mice; Manabe et al; cited from earlier work.
The test system of data set [13] is isolate perfused cat liver. Conditions: Araki et al; cited from earlier work.
Data set [14] concerns endotoxin shock. Conditions: dog; Fletcher et al; cited from earlier work.
In data set [15] the test system is endotoxin-induced lung injury. Conditions: sheep; Demling et al; cited from earlier work.
The subject of data set [16] is artery. Conditions: cited from earlier work.
Data set [17] has as its system arachidonic acid-induced blood platelet aggregation. Conditions: human; cited from earlier work.

For the compound `CCCC1CCC([C@H](O)/C=C/[C@H]2[C@H](O)CC(=O)[C@@H]2CC(=O)CCCCC(=O)OC)C1` (single isomer, unassigned) [Compound 6, 15-(3-Propylcyclopentyl)-16,17,18,19,20-pentanor-6-oxo-PGE1 methyl ester], in data set [1] (plasma GOT after 24 hr, read-out: inhibition rate GOT), the inhibition in vivo at 0.02 mg/kg amounted to 54.1%. In data set [1] (plasma GPT after 24 hr, read-out: inhibition rate GPT), the inhibition in vivo at 0.02 mg/kg was 43.2%. The “inhibition rate GOT” value in data set [1] (p.o., 100 μg/kg, plasma GOT after 24 hr) is listed as 71.3%. Besides, the “inhibition rate GPT” value in data set [1] (p.o., 100 μg/kg, plasma GPT after 24 hr) is recorded as 67.5%. In addition, in [2], the “inhibition rate GOT” value was found to be 24.5% and the “inhibition rate GPT” value amounted to 35.8%. For the same compound, in data set [3] (36 hr), the “inhibition rates GOT 36 hr after” value is recorded as 37.2% and the “inhibition rates GPT 36 hr after” value stood at 29.4%. In addition, in [3] (48 hr), the “inhibition rates GOT 48 hr after” value is reported as 46.3% and the “inhibition rates GPT 48 hr after” value is listed as 38.2%. In data set [3] (54 hr), the “inhibition rates GOT 54 hr after” value amounted to 39.1% and the “inhibition rates GPT 54 hr after” value amounted to 39.1%. In data set [4], the “inhibition GOT” value amounted to 33.2% and the “inhibition GPT” value is recorded as 60.4%. Besides, in data set [5] (20 μg/kg), the “inhibition GOT” value came to 14.6%, the “inhibition GPT” value came out at 5.4% and the inhibition bilirubin is given as 18.2%. In addition, in data set [5] (50 μg/kg), the “inhibition GOT” value is given as 44.6%, the “inhibition GPT” value was determined as 49.8% and the inhibition bilirubin came to 24.9%. Moreover, in [5] (100 μg/kg), the “inhibition GOT” value was found to be 67.8%, the “inhibition GPT” value was found to be 63.6% and the inhibition bilirubin is 50.5%. In data set [6], the “protection against death at day 9 from CDE diet” value is on record as “significant protection against death”. Also, the “treated mice dead at day 9” value in [6] (twice daily days 1-2, once daily days 3-5, untreated control 12 of 16 dead) is 3 of 16. The compound further registered an LD50 at 336 h in data set [7] of 10 to 20 mg/kg.
On to `CCCCC(C)(C)[C@H](O)/C=C/[C@H]1[C@H](O)CC(=O)[C@@H]1C/C=C\CCCC(=O)O` [16,16-dimethyl-PGE2], for which the “effect on acute galactosamine-induced liver damage” value in data set [8] was “prevents”. In addition, the “effect on carbon tetrachloride-induced liver cell necrosis” value in data set [9] is “prevents”.
With `CCCCC[C@H](O)/C=C/[C@H]1[C@H](O)CC(=O)[C@@H]1CCCCCCC(=O)O` [PGE1, Prostaglandin E1], the “effect on blood platelet aggregation” value in data set [10] is reported as “inhibits”. In data set [11], the effect on thrombus entry is “removes the thrombus and prevents thrombosis”.
`CCCCC[C@H](O)/C=C/[C@H]1[C@H](O)CC(=O)[C@@H]1C/C=C\CCCC(=O)O` [PGE2]: the “effect against diet-induced acute pancreatitis” value in data set [12] is given as “effective”.
For `CCCCC[C@H](O)/C=C/[C@@H]1[C@H]2C/C(=C/CCCC(=O)O)O[C@H]2C[C@H]1O` [PGI2, (5Z,13E)-(9α,11α,15S)-6,9-epoxy-11, 15-dihydroxyprosta-5,13-dienoic acid], the “effect on hypoxia in the isolate perfused liver” value in [13] was “prevents and is useful in treating”. In data set [14], the “effect on endotoxin shock” value was “prevents and is useful in treating”. Also, the “effect on endotoxin-induced lung injury” value in data set [15] is “prevents and is useful in treating”. Moreover, the “activity on the artery” value in data set [16] is “relaxing activity”. Besides, in data set [17], the “effect on arachidonic acid-induced blood platelet aggregation” value is reported as “strongly inhibits”.

The record behind these values is patent US4464388A, “Use of prostaglandin analogues to treat cytodamage” (priority 1982, dated 1984).
